Values of other authors, collected in patent US6458821B1, “N-substituted azabicycloheptane derivatives, production and use thereof” (Abbott Laboratories, priority 1998, dated 2002).

Columns and labels:
dopamine D4 receptor = target: T1, dopamine D4 receptor (Homo sapiens, UniProt P21917); conditions: background statement on substance A
T1 sequence (P21917 1-419): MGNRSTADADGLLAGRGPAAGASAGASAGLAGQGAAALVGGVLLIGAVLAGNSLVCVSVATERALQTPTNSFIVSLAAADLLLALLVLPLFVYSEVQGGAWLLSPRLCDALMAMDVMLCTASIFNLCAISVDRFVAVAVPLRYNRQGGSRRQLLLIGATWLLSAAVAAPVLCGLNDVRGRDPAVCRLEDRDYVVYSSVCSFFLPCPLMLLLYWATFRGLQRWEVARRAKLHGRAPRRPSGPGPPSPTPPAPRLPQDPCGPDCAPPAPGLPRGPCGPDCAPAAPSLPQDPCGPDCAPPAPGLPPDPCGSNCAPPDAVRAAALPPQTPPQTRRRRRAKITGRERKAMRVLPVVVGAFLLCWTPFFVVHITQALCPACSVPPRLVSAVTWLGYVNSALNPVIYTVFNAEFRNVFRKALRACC

serotonin 2A receptor = serotonin 2A receptor (Homo sapiens, UniProt P28223); conditions: background statement on substance A
D2 = D2 (Homo sapiens, UniProt P14416); conditions: D4/5-HT2A versus D2; background statement
[1] = limits the dosage of substance A

Sequence of D2 (P14416 whole entry): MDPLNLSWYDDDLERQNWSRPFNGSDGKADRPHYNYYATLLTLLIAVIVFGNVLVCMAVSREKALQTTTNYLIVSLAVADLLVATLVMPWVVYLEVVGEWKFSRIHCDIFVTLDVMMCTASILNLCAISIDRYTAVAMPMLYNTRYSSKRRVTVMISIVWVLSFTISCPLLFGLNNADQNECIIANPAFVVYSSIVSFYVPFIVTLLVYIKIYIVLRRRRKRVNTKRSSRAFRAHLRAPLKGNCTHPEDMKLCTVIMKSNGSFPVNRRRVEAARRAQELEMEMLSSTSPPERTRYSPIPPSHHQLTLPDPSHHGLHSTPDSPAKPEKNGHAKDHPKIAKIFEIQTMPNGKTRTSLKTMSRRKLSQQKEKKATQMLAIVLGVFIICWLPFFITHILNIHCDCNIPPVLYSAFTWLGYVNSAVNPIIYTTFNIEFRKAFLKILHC
Sequence of serotonin 2A receptor (P28223 whole entry): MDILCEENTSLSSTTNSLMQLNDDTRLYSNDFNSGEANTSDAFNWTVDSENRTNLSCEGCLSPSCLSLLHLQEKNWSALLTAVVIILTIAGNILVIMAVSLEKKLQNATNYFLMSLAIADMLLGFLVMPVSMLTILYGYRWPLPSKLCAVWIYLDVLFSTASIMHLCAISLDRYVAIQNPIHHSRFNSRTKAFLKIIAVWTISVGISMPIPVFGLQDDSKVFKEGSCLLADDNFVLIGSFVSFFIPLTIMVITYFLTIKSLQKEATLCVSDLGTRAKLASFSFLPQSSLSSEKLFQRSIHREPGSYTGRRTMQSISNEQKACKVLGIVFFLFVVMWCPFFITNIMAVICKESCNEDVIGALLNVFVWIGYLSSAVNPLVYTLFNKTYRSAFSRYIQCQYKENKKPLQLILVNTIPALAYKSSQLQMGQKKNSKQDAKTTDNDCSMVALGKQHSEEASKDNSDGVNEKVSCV

SMILES: O=c1[nH]c2ccccc2c(=O)n1CCN1C[C@H]2C[C@H](c3ccc(F)cc3)[C@H]2C1 [substance A, (+)-(1S,5R,6S)-exo-3-[2-[6-(4-fluorophenyl)-3-azabicyclo[3.2.0]-heptan-3-yl]ethyl]-1H,3H-quinazoline-2,4-dione]
- D4 affinity (dopamine D4 receptor): high
- 5-HT2A affinity (serotonin 2A receptor): high
- selectivity versus D2 (D2): good selectivity
- prolongations in the QT interval in the ECG [1]: prolongations which occur in the QT interval
